Reference: the NIST ThermoML archive (doi:10.1021/je0602824)
± gives the expanded uncertainty stated by the source.

Assay: xn = mol fraction of the nth substance listed
Settings: 101 kPa, Liquid

CCn1cc[n+](C)c1.O=C([O-])C(F)(F)F [1-ethyl-3-methylimidazolium trifluoroacetate] + O
Settings	mass density [kg/m3]	viscosity [mPa·s]
278.15 K, x2 = 0	1306.89 ± 12	78 ± 6
278.15 K, x2 = 0.2042	–	56 ± 4
278.15 K, x2 = 0.205	1299.84 ± 8.3	–
278.15 K, x2 = 0.3952	–	40 ± 2
278.15 K, x2 = 0.3983	1291.27 ± 5.9	–
278.15 K, x2 = 0.5808	1278 ± 4.1	25 ± 2
278.15 K, x2 = 0.7565	–	16 ± 2
278.15 K, x2 = 0.7573	1248.38 ± 2.8	–
278.15 K, x2 = 0.842	1216.87 ± 2.3	–
278.15 K, x2 = 0.9256	1151.47 ± 1.6	6 ± 2
278.15 K, x2 = 0.9667	1086.88 ± 1.1	–
278.15 K, x2 = 0.9912	1026.68 ± 0.72	–
288.15 K, x2 = 0	1298.81 ± 11	48 ± 3
288.15 K, x2 = 0.2042	–	35 ± 2
288.15 K, x2 = 0.205	1291.82 ± 8.2	–
288.15 K, x2 = 0.3952	–	26 ± 2
288.15 K, x2 = 0.3983	1283.25 ± 5.8	–
288.15 K, x2 = 0.5808	1269.93 ± 4	17 ± 2
288.15 K, x2 = 0.7565	–	11 ± 2
288.15 K, x2 = 0.7573	1240.21 ± 2.8	–
288.15 K, x2 = 0.842	1208.86 ± 2.2	–
288.15 K, x2 = 0.9256	1144.67 ± 1.6	5 ± 2
288.15 K, x2 = 0.9667	1082.51 ± 1.1	–
288.15 K, x2 = 0.9912	1024.93 ± 0.71	–
298.15 K, x2 = 0	1290.8 ± 11	32 ± 2
298.15 K, x2 = 0.2042	–	24 ± 2
298.15 K, x2 = 0.205	1283.85 ± 8	–
298.15 K, x2 = 0.3952	–	18 ± 2
298.15 K, x2 = 0.3983	1275.26 ± 5.7	–
298.15 K, x2 = 0.5808	1261.85 ± 4	12 ± 2
298.15 K, x2 = 0.7565	–	8 ± 2
298.15 K, x2 = 0.7573	1231.95 ± 2.7	–
298.15 K, x2 = 0.842	1200.76 ± 2.2	–
298.15 K, x2 = 0.9256	1137.65 ± 1.5	4
298.15 K, x2 = 0.9667	1077.55 ± 1.1	–
298.15 K, x2 = 0.9912	1022.15 ± 0.69	–
308.15 K, x2 = 0	1282.85 ± 11	23 ± 2
308.15 K, x2 = 0.2042	–	17 ± 2
308.15 K, x2 = 0.205	1275.92 ± 7.9	–
308.15 K, x2 = 0.3952	–	14 ± 2
308.15 K, x2 = 0.3983	1267.29 ± 5.6	–
308.15 K, x2 = 0.5808	1253.77 ± 3.9	9 ± 2
308.15 K, x2 = 0.7565	–	6 ± 2
308.15 K, x2 = 0.7573	1223.66 ± 2.7	–
308.15 K, x2 = 0.842	1192.57 ± 2.1	–
308.15 K, x2 = 0.9256	1130.4 ± 1.5	3
308.15 K, x2 = 0.9667	1072.06 ± 1	–
308.15 K, x2 = 0.9912	1018.5 ± 0.67	–
318.15 K, x2 = 0	1274.95 ± 11	17 ± 2
318.15 K, x2 = 0.2042	–	13 ± 2
318.15 K, x2 = 0.205	1268.04 ± 7.8	–
318.15 K, x2 = 0.3952	–	10 ± 2
318.15 K, x2 = 0.3983	1259.34 ± 5.5	–
318.15 K, x2 = 0.5808	1245.67 ± 3.8	8 ± 2
318.15 K, x2 = 0.7565	–	5 ± 2
318.15 K, x2 = 0.7573	1215.3 ± 2.6	–
318.15 K, x2 = 0.842	1184.27 ± 2.1	–
318.15 K, x2 = 0.9256	1122.93 ± 1.4	3
318.15 K, x2 = 0.9667	1066.08 ± 1	–
318.15 K, x2 = 0.9912	1014.11 ± 0.64	–
328.15 K, x2 = 0	1267.12 ± 11	13 ± 2
328.15 K, x2 = 0.2042	–	10 ± 2
328.15 K, x2 = 0.205	1260.21 ± 7.7	–
328.15 K, x2 = 0.3952	–	8 ± 2
328.15 K, x2 = 0.3983	1251.41 ± 5.4	–
328.15 K, x2 = 0.5808	1237.55 ± 3.8	6 ± 2
328.15 K, x2 = 0.7565	–	5 ± 2
328.15 K, x2 = 0.7573	1206.84 ± 2.5	–
328.15 K, x2 = 0.842	1175.86 ± 2	–
328.15 K, x2 = 0.9256	1115.2 ± 1.4	3
328.15 K, x2 = 0.9667	1059.66 ± 0.96	–
328.15 K, x2 = 0.9912	1009.07 ± 0.61	–
338.15 K, x2 = 0	1259.35 ± 11	10 ± 2
338.15 K, x2 = 0.2042	–	8 ± 2
338.15 K, x2 = 0.205	1252.42 ± 7.6	–
338.15 K, x2 = 0.3952	–	7 ± 2
338.15 K, x2 = 0.3983	1243.49 ± 5.3	–
338.15 K, x2 = 0.5808	1229.41 ± 3.7	6 ± 2
338.15 K, x2 = 0.7565	–	4
338.15 K, x2 = 0.7573	1198.32 ± 2.5	–
338.15 K, x2 = 0.842	1167.33 ± 1.9	–
338.15 K, x2 = 0.9256	1107.28 ± 1.3	2
338.15 K, x2 = 0.9667	1052.83 ± 0.92	–
338.15 K, x2 = 0.9912	1002.87 ± 0.57	–
348.15 K, x2 = 0	1251.63 ± 10	9 ± 2
348.15 K, x2 = 0.2042	–	7 ± 2
348.15 K, x2 = 0.205	1244.66 ± 7.5	–
348.15 K, x2 = 0.3952	–	6 ± 2
348.15 K, x2 = 0.3983	1235.59 ± 5.2	–
348.15 K, x2 = 0.5808	1221.23 ± 3.6	5 ± 2
348.15 K, x2 = 0.7565	–	4
348.15 K, x2 = 0.7573	1189.98 ± 2.4	–
348.15 K, x2 = 0.842	1158.69 ± 1.9	–
348.15 K, x2 = 0.9256	1099.05 ± 1.3	2
348.15 K, x2 = 0.9667	1045.56 ± 0.88	–
348.15 K, x2 = 0.9912	997.23 ± 0.57	–
